# From patent US5883243A, “Non-reducing saccharides, their preparations and uses” (Kabushiki Kaisha Hayashibara Seibutsu Kagaku Kenkyujo, priority 1997, dated 1999)
# How the values were obtained:
# [1] = Maillard reaction (coloration with glycine); format: physicochemical; conditions: 10 w/v % saccharide, one w/v % glycine, 50 mM phosphate buffer pH 7.0, 100° C., 90 min; 1-cm cell
# [2] = test system: Bifidobacterium adolescentis JCM 1275; assay: Assimilation test by intestinal microorganism; format: cell-based; conditions: 0.5 w/v % saccharide in PYF broth, 37° C., 96 hours
# [3] = test system: Bifidobacterium animalis JCM 1190; assay: Assimilation test by intestinal microorganism; format: cell-based; conditions: 0.5 w/v % saccharide in PYF broth, 37° C., 96 hours
# [4] = test system: Bifidobacterium bifidum JCM 1255; assay: Assimilation test by intestinal microorganism; format: cell-based; conditions: 0.5 w/v % saccharide in PYF broth, 37° C., 96 hours
# [5] = test system: Bifidobacterium breve JCM 1192; assay: Assimilation test by intestinal microorganism; format: cell-based; conditions: 0.5 w/v % saccharide in PYF broth, 37° C., 96 hours
# [6] = test system: Bifidobacterium infantis JCM 1222; assay: Assimilation test by intestinal microorganism; format: cell-based; conditions: 0.5 w/v % saccharide in PYF broth, 37° C., 96 hours
# [7] = test system: Bifidobacterium longum JCM 1217; assay: Assimilation test by intestinal microorganism; format: cell-based; conditions: 0.5 w/v % saccharide in PYF broth, 37° C., 96 hours
# [8] = test system: Lactobacillus fermentum IFO 3959; assay: Assimilation test by intestinal microorganism; format: cell-based; conditions: 0.5 w/v % saccharide in PYF broth, 37° C., 96 hours
# [9] = test system: Lactobacillus plantarum IFO 3070; assay: Assimilation test by intestinal microorganism; format: cell-based; conditions: 0.5 w/v % saccharide in PYF broth, 37° C., 96 hours
# [10] = test system: Eubacterium aerofaciens ATCC 25986; assay: Assimilation test by intestinal microorganism; format: cell-based; conditions: 0.5 w/v % saccharide in PYF broth, 37° C., 96 hours
# [11] = test system: Bacteroides distasonis JCM 5825; assay: Assimilation test by intestinal microorganism; format: cell-based; conditions: 0.5 w/v % saccharide in PYF broth, 37° C., 96 hours
# [12] = test system: Bacteroides vulgatus JCM 5826; assay: Assimilation test by intestinal microorganism; format: cell-based; conditions: 0.5 w/v % saccharide in PYF broth, 37° C., 96 hours
# [13] = test system: Bacteroides uniformis JCM 5828; assay: Assimilation test by intestinal microorganism; format: cell-based; conditions: 0.5 w/v % saccharide in PYF broth, 37° C., 96 hours
# [14] = test system: Clostridium butyricum JCM 1391; format: cell-based; conditions: 0.5 w/v % saccharide in PYF broth, 37° C., 96 hours
# [15] = test system: Clostridium perfringens JCM 3816; format: cell-based; conditions: 0.5 w/v % saccharide in PYF broth, 37° C., 96 hours
# [16] = test system: Clostridium ramosum JCM 1298; assay: Assimilation test by intestinal microorganism; format: cell-based; conditions: 0.5 w/v % saccharide in PYF broth, 37° C., 96 hours
# [17] = test system: Streptococcus faecalis IAM 10065; assay: Assimilation test by intestinal microorganism; format: cell-based; conditions: 0.5 w/v % saccharide in PYF broth, 37° C., 96 hours
# [18] = test system: Peptostreptococcus prevotii ATCC 9321; assay: Assimilation test by intestinal microorganism; format: cell-based; conditions: 0.5 w/v % saccharide in PYF broth, 37° C., 96 hours
# [19] = test system: Escherichia coli IFO 3301; assay: Assimilation test by intestinal microorganism; format: cell-based; conditions: 0.5 w/v % saccharide in PYF broth, 37° C., 96 hours
# [20] = test system: crude glucosyltransferase specimen derived from Streptococcus sobrinus strain (ATCC 27351); assay: Inhibition of insoluble glucan formation by glucosyltransferase from dental caries-inducing microorganism; format: biochemical
# Method: To a mixture solution consisting of one ml of one w/v % sucrose solution, one ml of one w/v % of a test saccharide solution, and 1.5 ml of 0.1M phosphate buffer (pH 6.8) was added 0.5 ml solution containing a crude glucosyltransferase specimen in a total protein content of 10 mg, and the mixture solution was placed in a small test tube which was then fixed and slanted to give a grade 30 degrees and allowed to react at 37° C. for 16 hours. The reaction mixture was transferred gently to another test tube and mixed with a solution obtained by washing carefully with 4 ml water the remaining substances adhered to the inner walls of the small test tube, and the mixture solution was centrifuged to obtain a precipitate as a non-adsorbed glucan. The amounts of the adsorbed- and non-adsorbed glucans thus obtained were respectively quantified by the anthrone-sulfuric acid method, and the total amount of them was regarded as the amount of the formed insoluble glucans. As a control system, a reaction system using water in place of the test saccharide solution, i.e. a reaction system using sucrose as a saccharide, was provided.
# [21] = test system: Streptococcus sobrinus ATCC 27351; assay: Acid formation by dental caries-inducing microorganisms; conditions: living wet cells, 0.02M saccharide, Stephen buffer pH 7.0, 37° C.
smiles,measurement,setting,value
"OC[C@H]1O[C@H](O[C@H]2O[C@H](CO)[C@@H](O)[C@H](O)[C@H]2O)[C@H](O)[C@@H](O)[C@@H]1O [Trehalose, trehalose, reference compound]",Coloration degree (at a wavelength of 480 nm),[1],0.007
same,Judgement of assimilation (turbidity at a wavelength of 750 nm × 5),[2],+ (0.15 or higher but less than 0.2)
same,Judgement of assimilation (turbidity at a wavelength of 750 nm × 5),[3],+ (0.15 or higher but less than 0.2)
same,Judgement of assimilation (turbidity at a wavelength of 750 nm × 5),[4],+ (0.15 or higher but less than 0.2)
same,Judgement of assimilation (turbidity at a wavelength of 750 nm × 5),[5],- (Less than 0.1)
same,Judgement of assimilation (turbidity at a wavelength of 750 nm × 5),[6],- (Less than 0.1)
same,Judgement of assimilation (turbidity at a wavelength of 750 nm × 5),[7],++ (0.2 or higher but less than 0.3)
same,Judgement of assimilation (turbidity at a wavelength of 750 nm × 5),[8],+ (0.15 or higher but less than 0.2)
same,Judgement of assimilation (turbidity at a wavelength of 750 nm × 5),[9],++ (0.2 or higher but less than 0.3)
same,Judgement of assimilation (turbidity at a wavelength of 750 nm × 5),[10],- (Less than 0.1)
same,Judgement of assimilation (turbidity at a wavelength of 750 nm × 5),[11],++ (0.2 or higher but less than 0.3)
same,Judgement of assimilation (turbidity at a wavelength of 750 nm × 5),[12],+ (0.15 or higher but less than 0.2)
same,Judgement of assimilation (turbidity at a wavelength of 750 nm × 5),[13],++ (0.2 or higher but less than 0.3)
same,Judgement of assimilation (turbidity at a wavelength of 750 nm × 5),[14],+++ (0.3 or higher)
same,Judgement of assimilation (turbidity at a wavelength of 750 nm × 5),[15],+++ (0.3 or higher)
same,Judgement of assimilation (turbidity at a wavelength of 750 nm × 5),[16],+ (0.15 or higher but less than 0.2)
same,Judgement of assimilation (turbidity at a wavelength of 750 nm × 5),[17],+ (0.15 or higher but less than 0.2)
same,Judgement of assimilation (turbidity at a wavelength of 750 nm × 5),[18],+ (0.15 or higher but less than 0.2)
same,Judgement of assimilation (turbidity at a wavelength of 750 nm × 5),[19],- (Less than 0.1)
same,Yield of non-adsorbed glucans,"[20]; sucrose plus test saccharide (one ml of one w/v % each), pH 6.8, 37° C., 16 hours, sucrose alone 923","1,130 μg/ml"
same,Yield of adsorbed glucans,"[20]; sucrose plus test saccharide (one ml of one w/v % each), pH 6.8, 37° C., 16 hours, sucrose alone 1,160",772 µg/mL
same,Inhibitory percentage (%) on insoluble glucans' formation,"[20]; sucrose plus test saccharide, versus sucrose alone",8.7%
same,pH at each fermentation time (min): 0,[21]; 0 min,7.0
same,pH at each fermentation time (min): 5,[21]; 5 min,6.7
same,pH at each fermentation time (min): 15,[21]; 15 min,5.3
same,pH at each fermentation time (min): 30,[21]; 30 min,4.7
same,pH at each fermentation time (min): 60,[21]; 60 min,4.3
same,pH at each fermentation time (min): 90,[21]; 90 min,4.2
